Test results as given in the supplement of paper PMC10307832.

Key:
Experiment in all cases: relative viability (nuclei count vs DMSO), 5 days (fraction); higher = more cells survive
[1] = compound: COC1=CC=C(C=C1)CN2C=CC3=C2C=C(C=C3)C(=O)NO + Nc1ncn([C@H]2C[C@H](O)[C@@H](CO)O2)c(=O)n1 [Decitabine] (partner 2 µM)
In short: (§1)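 Lung cancer cell lines were pin-tool dosed in 1536-well plates on the day after seeding, with either a lone drug or a fixed anchor-drug dose plus five library-drug doses (not always all listed) in √10 steps. Nuclei were counted on 4× images after 5 days. Relative viability is the ratio of treated-well to vehicle-well nuclei counts, with each value a median of duplicate plates.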

[2] = compound: COC1=CC=C(C=C1)CN2C=CC3=C2C=C(C=C3)C(=O)NO + N=C(N)NC(=N)NCCc1ccccc1 [Phenformin] (partner 250 µM)
In short: as §1

Veliparib + Linsitinib = compound: C[C@]1(c2nc3c(C(N)=O)cccc3[nH]2)CCCN1 [Veliparib] + C[C@]1(O)C[C@@H](c2nc(-c3ccc4ccc(-c5ccccc5)nc4c3)c3c(N)nccn32)C1 [Linsitinib] (partner 1 µM)
In short: as §1

[3] = compound: COC1=CC=C(C=C1)CN2C=CC3=C2C=C(C=C3)C(=O)NO + CCNC(=O)c1noc(-c2cc(C(C)C)c(O)cc2O)c1-c1ccc(CN2CCOCC2)cc1 [Luminespib] (partner 0.01 µM)
In short: as §1

Row | Cell Line | relative viability ([1]; first compound 0.08 µM) | relative viability ([1]; first compound 0.253 µM) | relative viability ([1]; first compound 0.8 µM) | relative viability ([1]; first compound 2.53 µM) | relative viability ([1]; first compound 8 µM) | relative viability ([2]; first compound 0.08 µM) | relative viability ([2]; first compound 0.253 µM) | relative viability ([2]; first compound 0.8 µM) | relative viability ([2]; first compound 2.53 µM) | relative viability ([2]; first compound 8 µM) | relative viability (Veliparib + Linsitinib; first compound 0.02 µM) | relative viability (Veliparib + Linsitinib; first compound 0.06325 µM) | relative viability (Veliparib + Linsitinib; first compound 0.2 µM) | relative viability (Veliparib + Linsitinib; first compound 0.6325 µM) | relative viability (Veliparib + Linsitinib; first compound 2 µM) | relative viability ([3]; first compound 0.08 µM) | relative viability ([3]; first compound 0.253 µM) | relative viability ([3]; first compound 0.8 µM) | relative viability ([3]; first compound 2.53 µM) | relative viability ([3]; first compound 8 µM)
1 | HOP-62 | 0.173 | 0.217 | 0.216 | 0.27 | 0.244 | 0.583 | 0.658 | 0.696 | 0.643 | 0.623 | 1 | 0.923 | 0.738 | 0.987 | 0.983 | 0.756 | 0.876 | 0.939 | 0.951 | 0.94
2 | LC-2-ad | 0.853 | 0.871 | 0.81 | 0.773 | 0.816 | 0.493 | 0.577 | 0.561 | 0.588 | 0.479 | – | 0.83 | 0.787 | 0.819 | 0.786 | 0.993 | 0.82 | 0.992 | 1.06 | 0.791
3 | EKVX | – | 0.327 | 0.378 | 0.372 | 0.415 | 0.192 | 0.239 | 0.264 | 0.225 | 0.219 | 0.948 | 0.912 | 0.952 | 0.86 | 1.02 | 0.864 | 0.896 | 0.913 | 0.858 | 0.783
4 | LCLC-103H | 0.731 | 0.812 | 0.761 | 0.779 | 0.681 | 0.339 | 0.339 | 0.398 | 0.347 | 0.287 | 1.1 | 0.982 | 1.11 | 1.01 | 1.08 | 0.938 | 0.99 | 0.948 | 1.03 | 0.883
5 | LU99A | – | 0.959 | 0.952 | 0.843 | 0.911 | – | 0.826 | 0.915 | 0.875 | 0.685 | 0.579 | 0.61 | 0.565 | 0.475 | 0.525 | – | 0.227 | 0.288 | 0.29 | 0.277
6 | NCI-H520 | 0.517 | 0.481 | 0.484 | 0.495 | 0.551 | – | 0.618 | 0.645 | 0.703 | 0.503 | 0.984 | 1.03 | 0.966 | 0.922 | 1.04 | – | 0.207 | 0.193 | 0.227 | 0.226
7 | COR-L23 | 0.378 | 0.465 | 0.456 | 0.407 | 0.357 | 0.369 | 0.441 | 0.437 | 0.447 | 0.422 | 1.1 | 0.886 | 0.9 | 0.656 | 0.816 | 0.536 | 0.754 | 0.716 | 0.747 | 0.603
8 | NCI-H1437 | 0.558 | 0.608 | 0.547 | 0.576 | 0.606 | 0.289 | 0.348 | 0.36 | 0.424 | 0.274 | 1.01 | 1.04 | 1.02 | 1.03 | 1.08 | 1 | 1.13 | 1.09 | 1.18 | 1.13
